Measurements as given in the NIST ThermoML archive (doi:10.1021/je0604030).
Numbers after ± are expanded uncertainties.

Conditions: Liquid, Ebulliometric method (Recirculating still)

| SMILES | vapor or sublimation pressure (159.61 K) | vapor or sublimation pressure (161.58 K) | vapor or sublimation pressure (169.38 K) | vapor or sublimation pressure (173.9 K) | vapor or sublimation pressure (178.93 K) |
| --- | --- | --- | --- | --- | --- |
| FC(F)(F)F [tetrafluoromethane] | 243 ± 8 kPa | 269 ± 9 kPa | 431 ± 14 kPa | 517 ± 17 kPa | 651 ± 21 kPa |
| C [methane] | 1567 ± 50 kPa | 1695 ± 54 kPa | 2276 ± 73 kPa | 2672 ± 86 kPa | 3170 ± 100 kPa |
